The source of these data is patent US20040166509A1, “Detecting hormonally active compounds” (priority 2002, published 2004).

Structures are written as SMILES.

For assay [1], the system named is hepatic mRNA of adult male SHMs. Nature of the assay: SHM cDNA macroarray (30 genes): hepatic gene expression profiles of exposed fish. The assay is classed as in vivo, sheepshead minnow (SHM).
Another assay relates to hepatic RNA of LMB. Briefly: LMB gene array (132 genes): hepatic gene expression after IP injection. Conditions: two-fold cutoff vs control; for LMB83 vitellogenin-2 (Vtg 2) expression / LMB87 vitellogenin-1 (Vtg 1) expression / LMB97 choriogenin-3 expression / LMB108-1 choriogenin-2 expression / LMB47-2 (clone 47-2) expression: male LMB liver; for LMB83 vitellogenin-2 (Vtg 2) expression / LMB87 vitellogenin-1 (Vtg 1) expression / LMB97 choriogenin-3 expression / LMB108-1 choriogenin-2 expression: 48 h after single IP dose: E2 2.5 mg/kg, 4-NP 50 mg/kg or p,p′-DDE 100 mg/kg. The format is in vivo, largemouth bass (LMB).

The mark [2] stands for this setting: Estrogen receptor alpha (clone ID not given).
[3] abbreviates: clone SHM2-1: vitellogenin alpha (2).
The mark [4] stands for this setting: clone SHM72-3: Coagulation Factor XI.
The mark [5] stands for this setting: clone SHM76-2: Alphal-microglobulin/bikunin precursor (AMBP) protein.
Where [6] appears, read: male SHM liver, EE2 24, 109 or 832 ng/L, 4 days.
Setting [7] is: female LMB liver, 48 h after single IP p,p′-DDE 100 mg/kg.
Setting [8] is: female LMB liver, 48 h after single IP p,p′-DDE 100 mg/kg, listed as p, p′-DDE.

`CC/C(=C(/CC)c1ccc(O)cc1)c1ccc(O)cc1` [DES, diethylstilbestrol]: the Regulation entry is “up-reg E2; EE2,” in assay [1] (setting [2]); “up-reg E2; EE2,” in assay [1] (setting [3]); “dn-reg E2; EE2,” in assay [1] (clone SHM11: Transferrin); “up-reg E2; EE2,” in assay [1] (setting [4]); “d-reg E2; EE2,” in assay [1] (setting [5]).

For the compound `C#C[C@]1(O)CC[C@H]2[C@@H]3CCc4cc(O)ccc4[C@H]3CC[C@@]21C` [EE2, 17α-ethynyl estradiol], the Regulation result in assay [1] (setting [2]) is reported as “up-reg E2; EE2,”. Moreover, the Regulation result in assay [1] (setting [3]) is “up-reg E2; EE2,”. The Regulation entry in assay [1] (clone SHM11: Transferrin) was “dn-reg E2; EE2,”. The Regulation result in assay [1] (setting [4]) is “up-reg E2; EE2,”. Moreover, in assay [1] (setting [5]), the Regulation result was “d-reg E2; EE2,”. Moreover, in assay [1] (setting [6]), the “ER α expression, EE2 dose response” value was “increase in a concentration dependent manner”; the “Vtg α expression, EE2 dose response” value was “increase in a concentration dependent manner”; the “Vtg β expression, EE2 dose response” value is recorded as “increase in a concentration dependent manner”; the “alpha-1-microglobulin/bikunin precursor protein expression, EE2 dose response” value was “decrease in a dose-dependent manner”. Further, in assay [1] (setting [6]), the “beta actin expression, EE2 dose response” value is listed as “decrease in a dose-dependent manner”; the “choriogenin 2 expression, EE2 dose response” value is “increase in a concentration dependent manner”; the “choriogenin 3 expression, EE2 dose response” value is “increase in a concentration dependent manner”; the “clone ND107-B expression, EE2 dose response” value is recorded as “increase in a concentration dependent manner”. The “transferrin expression, EE2 dose response” value in assay [1] (setting [6]) is recorded as “decrease in a dose-dependent manner”.

`COc1ccc(C(c2ccc(OC)cc2)C(Cl)(Cl)Cl)cc1` [MXC, methoxychlor]: the Regulation result in assay [1] (setting [2]) is listed as “up-reg E2; EE2,”; in assay [1] (setting [3]), “up-reg E2; EE2,”; in assay [1] (clone SHM11: Transferrin), “dn-reg E2; EE2,”; in assay [1] (setting [4]), “up-reg E2; EE2,”; in assay [1] (setting [5]) it was “d-reg E2; EE2,”.

Take `ClC(Cl)=C(c1ccc(Cl)cc1)c1ccc(Cl)cc1` [p,p′-DDE]: in the assay on hepatic RNA of LMB (setting [7]), the “LMB5 vitellogenin-2A expression, female” value is on record as “NP; Dn-reg”; the “LMB50-1 (clone 50-1) expression, female” value was “Down reg NP;”; the “LMB53-1 (clone 53-1) expression, female” value is listed as “Down-reg. E2;”; the “LMB71-1 (clone 71-1) expression, female” value is “down-reg”. In addition, in the assay with hepatic RNA of LMB (setting [7]), the “LMB83 vitellogenin-2 expression, female” value was “dn-reg DDE(F)”; the “LMB87 vitellogenin-1 expression, female” value is recorded as “dn-reg DDE(F)”; the “LMB94-1 transferrin expression, female” value is given as “Down-reg”; the “LMB101-1 (clone 101-1) expression, female” value was “Dn”. In the assay with hepatic RNA of LMB (setting [7]), the “LMB102-1 chemotaxin expression, female” value is “down-reg”; the “LMB107-1 (clone 107-1) expression, female” value was “down-reg”; the “LMB108-1 choriogenin-2 expression, female” value is listed as “DDE(M); Dn-”; the “LMB112-1 cathepsin (Aspartic protease) expression, female” value is reported as “DHT; Dn-DDE (F)”. In the assay on hepatic RNA of LMB (setting [7]), the “LMB118-1 apolipoprotein precursor (clone 118-1) expression, female” value is given as “down-reg”; the “LMB120-1 hypothetical protein (clone 120-1) expression, female” value is listed as “donw-reg”; the “LMB128-1 (clone 128-1) expression, female” value was “down-reg”; the “LMB141 vitellogenin-3 expression, female” value was “dn DDE (F)”. In the assay on hepatic RNA of LMB (setting [7]), the “LMB150 androgen receptor expression, female” value is recorded as “Dn-reg DDE(F)”; the “four Vtg's expression, female” value is “down-regulated”; the “genes up-regulated in female fish” value is given as “no genes were identified as up-regulated”. Further, in the assay on hepatic RNA of LMB (setting [8]), the “LMB50-1 (clone 50-1) expression, female” value is reported as “down-regulated”; the “LMB53-1 (clone 53-1) expression, female” value is listed as “down-regulated”; the “LMB71-1 (clone 71-1) expression, female” value is given as “down-regulated”; the “LMB94-1 transferrin expression, female” value is “down-regulated”. Further, in the assay on hepatic RNA of LMB (setting [8]), the “LMB101-1 (clone 101-1) expression, female” value is “down-regulated”; the “LMB102-1 chemotaxin expression, female” value is given as “down-regulated”; the “LMB107-1 (clone 107-1) expression, female” value is “down-regulated”; the “LMB108-1 choriogenin-2 expression, female” value is listed as “down-regulated”. Also, in the assay on hepatic RNA of LMB (setting [8]), the “LMB112-1 cathepsin (Aspartic protease) expression, female” value is recorded as “down-regulated”; the “LMB118-1 apolipoprotein precursor (clone 118-1) expression, female” value is given as “down-regulated”; the “LMB120-1 hypothetical protein (clone 120-1) expression, female” value is reported as “down-regulated”; the “LMB128-1 (clone 128-1) expression, female” value is on record as “down-regulated”. In the assay with hepatic RNA of LMB (setting [8]), the “LMB150 androgen receptor expression, female” value is given as “down-regulated”. Further, in the assay on hepatic RNA of LMB, the “LMB83 vitellogenin-2 (Vtg 2) expression” value is reported as “up-reg E2;”, the “LMB87 vitellogenin-1 (Vtg 1) expression” value was “up-reg E2;”, the “LMB97 choriogenin-3 expression” value was “Up-reg E2;” and the “LMB108-1 choriogenin-2 expression” value is “Up-reg E2; NP;”. Besides, in the assay with hepatic RNA of LMB (listed as p, p′-DDE), the “LMB83 vitellogenin-2 (Vtg 2) expression” value is recorded as “up-regulated”, the “LMB87 vitellogenin-1 (Vtg 1) expression” value is recorded as “up-regulated”, the “LMB97 choriogenin-3 expression” value is given as “up-regulated” and the “LMB108-1 choriogenin-2 expression” value is recorded as “up-regulated”. For the same compound, the “LMB47-2 (clone 47-2) expression” value with hepatic RNA of LMB (48 h after single IP p,p′-DDE 100 mg/kg) is “Down-reg”. The “LMB47-2 (clone 47-2) expression” value in the assay on hepatic RNA of LMB (48 h after single IP p,p′-DDE 100 mg/kg, listed as p, p′-DDE) is “down-regulated”.
